Assays:
Format in all cases: functional
SF-539 [1] = test: Cytotoxicity against human SF539 cells assessed as cell growth at 1 uM after 48 hrs by SRB assay relative to control; details: SF-539, 48 h, read-out: Activity
HCT-116 = test: Cytotoxicity against human HCT116 cells assessed as cell growth at 0.01 uM after 48 hrs by SRB assay relative to control; details: HCT-116, 48 h, read-out: Activity
K562 [2] = test: Cytotoxicity against human K562 cells assessed as cell growth at 1 uM after 48 hrs by SRB assay relative to control; details: K562, 48 h, read-out: Activity
MDA-MB-435 = test: Cytotoxicity against human MDA-MB-435 cells after 48 hrs by SRB assay; details: MDA-MB-435, 48 h
CAKI-1 [3] = test: Cytotoxicity against human Caki1 cells assessed as cell growth at 0.01 uM after 48 hrs by SRB assay relative to control; details: CAKI-1, 48 h, read-out: Activity
NCI-H226 = test: Cytotoxicity against human NCI-H226 cells assessed as cell growth at 0.1 uM after 48 hrs by SRB assay relative to control; details: NCI-H226, 48 h, read-out: Activity
MOLT-4 = test: Cytotoxicity against human MOLT4 cells assessed as cell growth at 100 uM after 48 hrs by SRB assay relative to control; details: MOLT-4, 48 h, read-out: Activity
SK-MEL-28 = test: Cytotoxicity against human SK-MEL-28 cells after 48 hrs by SRB assay; details: SK-MEL-28, 48 h
MCF7 = test: Cytotoxicity against human MCF7 cells assessed as cell growth at 100 uM after 48 hrs by SRB assay relative to control; details: MCF7, 48 h, read-out: Activity
M14 [4] = test: Cytotoxicity against human M14 cells assessed as cell growth at 100 uM after 48 hrs by SRB assay relative to control; details: M14, 48 h, read-out: Activity
COLO 205 = test: Cytotoxicity against human COLO205 cells assessed as cell growth at 1 uM after 48 hrs by SRB assay relative to control; details: COLO 205, 48 h, read-out: Activity
HCC 2998 = test: Cytotoxicity against human HCC2998 cells assessed as cell growth at 1 uM after 48 hrs by SRB assay relative to control; details: HCC 2998, 48 h, read-out: Activity
CAKI-1 [5] = test: Cytotoxicity against human Caki1 cells after 48 hrs by SRB assay; details: CAKI-1, 48 h
DU-145 = test: Cytotoxicity against human DU145 cells assessed as cell growth at 0.01 uM after 48 hrs by SRB assay relative to control; details: DU-145, 48 h, read-out: Activity
M14 [6] = test: Cytotoxicity against human M14 cells assessed as cell growth at 0.1 uM after 48 hrs by SRB assay relative to control; details: M14, 48 h, read-out: Activity
IGROV-1 [7] = test: Cytotoxicity against human IGROV1 cells assessed as cell growth at 0.1 uM after 48 hrs by SRB assay relative to control; details: IGROV-1, 48 h, read-out: Activity
Malme-3M = test: Cytotoxicity against human MALME-3M cells assessed as cell growth at 100 uM after 48 hrs by SRB assay relative to control; details: read-out: Activity
NCI-H522 = test: Cytotoxicity against human NCI-H522 cells assessed as cell growth at 100 uM after 48 hrs by SRB assay relative to control; details: NCI-H522, 48 h, read-out: Activity
SNB-75 [8] = test: Cytotoxicity against human SNB75 cells assessed as cell growth at 1 uM after 48 hrs by SRB assay relative to control; details: SNB-75, 48 h, read-out: Activity
SNB-75 [9] = test: Cytotoxicity against human SNB75 cells assessed as cell growth at 0.1 uM after 48 hrs by SRB assay relative to control; details: SNB-75, 48 h, read-out: Activity
HL-60(TB) [10] = test: Cytotoxicity against human HL-60(TB) cells after 48 hrs by SRB assay; details: HL-60, 48 h
RXF 393 = test: Cytotoxicity against human RXF393 cells assessed as cell growth at 1 uM after 48 hrs by SRB assay relative to control; details: RXF 393, 48 h, read-out: Activity
OVCAR-5 = test: Cytotoxicity against human OVCAR5 cells assessed as cell growth at 0.01 uM after 48 hrs by SRB assay relative to control; details: OVCAR-5, 48 h, read-out: Activity
HL-60(TB) [11] = test: Cytotoxicity against human HL-60(TB) cells assessed as cell growth at 100 uM after 48 hrs by SRB assay relative to control; details: HL-60, 48 h, read-out: Activity
K562 [12] = test: Cytotoxicity against human K562 cells after 48 hrs by SRB assay; details: K562, 48 h
A498 = test: Cytotoxicity against human A498 cells assessed as cell growth at 1 uM after 48 hrs by SRB assay relative to control; details: A498, 48 h, read-out: Activity
IGROV-1 [13] = test: Cytotoxicity against human IGROV1 cells assessed as cell growth at 0.01 uM after 48 hrs by SRB assay relative to control; details: IGROV-1, 48 h, read-out: Activity
SF-539 [14] = test: Cytotoxicity against human SF539 cells assessed as cell growth at 0.1 uM after 48 hrs by SRB assay relative to control; details: SF-539, 48 h, read-out: Activity
NCI-H23 = test: Cytotoxicity against human NCI-H23 cells assessed as cell growth at 0.01 uM after 48 hrs by SRB assay relative to control; details: NCI-H23, 48 h, read-out: Activity
UO-31 [15] = test: Cytotoxicity against human UO31 cells assessed as cell growth at 0.1 uM after 48 hrs by SRB assay relative to control; details: UO-31, 48 h, read-out: Activity
SF-268 = test: Cytotoxicity against human SF268 cells assessed as cell growth at 1 uM after 48 hrs by SRB assay relative to control; details: SF-268, 48 h, read-out: Activity
NCI-H460 = test: Cytotoxicity against human NCI-H460 cells after 48 hrs by SRB assay; details: NCI-H460, 48 h
MDA-MB-231 = test: Cytotoxicity against human MDA-MB-231 cells assessed as cell growth at 100 uM after 48 hrs by SRB assay relative to control; details: MDA-MB-231, 48 h, read-out: Activity
UO-31 [16] = test: Cytotoxicity against human UO31 cells assessed as cell growth at 1 uM after 48 hrs by SRB assay relative to control; details: UO-31, 48 h, read-out: Activity
NCI/ADR-RES = test: Cytotoxicity against human NCI-ADR-RES cells assessed as cell growth at 0.1 uM after 48 hrs by SRB assay relative to control; details: read-out: Activity
ACHN = test: Cytotoxicity against human ACHN cells after 48 hrs by SRB assay; details: for CC50: read-out: LC50 (the source's name)

## N#CCCCCCn1cc(C2=C(c3cn(CCCCCC#N)c4ccccc34)C(=O)N(O)C2=O)c2ccccc21
SF-539 [1]
  growth at 1 µM: 93%
HCT-116
  growth at 0.01 µM: 102%
K562 [2]
  growth at 1 µM: 94%
MDA-MB-435
  GI50: 2.74 µM
  LC50: > 100 µM
  TGI: 8.31 µM
CAKI-1 [3]
  growth at 0.01 µM: 98%
NCI-H226
  growth at 0.1 µM: 96%
MOLT-4
  growth at 100 µM: 2%
SK-MEL-28
  GI50: 6.07 µM
  LC50: > 100 µM
  TGI: > 100 µM
MCF7
  growth at 100 µM: -14%
M14 [4]
  growth at 100 µM: -25%
COLO 205
  growth at 1 µM: 97%
HCC 2998
  growth at 1 µM: 108%
CAKI-1 [5]
  GI50: 21.3 µM
  LC50: > 100 µM
  TGI: > 100 µM
DU-145
  growth at 0.01 µM: 101%
M14 [6]
  growth at 0.1 µM: 85%
IGROV-1 [7]
  growth at 0.1 µM: 101%
Malme-3M
  growth at 100 µM: -14%
NCI-H522
  growth at 100 µM: -30%
SNB-75 [8]
  growth at 1 µM: 80%
SNB-75 [9]
  growth at 0.1 µM: 72%
HL-60(TB) [10]
  GI50: 2.54 µM
  LC50: > 100 µM
  TGI: 6.44 µM
RXF 393
  growth at 1 µM: 98%
OVCAR-5
  growth at 0.01 µM: 99%
HL-60(TB) [11]
  growth at 100 µM: -27%
K562 [12]
  GI50: 3.59 µM
  LC50 (concentration killing 50% of cells): > 100 µM
  TGI: > 100 µM
A498
  growth at 1 µM: 70%
IGROV-1 [13]
  growth at 0.01 µM: 104%
SF-539 [14]
  growth at 0.1 µM: 90%
NCI-H23
  growth at 0.01 µM: 95%
UO-31 [15]
  growth at 0.1 µM: 66%
SF-268
  growth at 1 µM: 99%
NCI-H460
  GI50: 5.05 µM
  LC50: > 100 µM
  TGI: 33 µM
MDA-MB-231
  growth at 100 µM: -7%
UO-31 [16]
  growth at 1 µM: 59%
NCI/ADR-RES
  growth at 0.1 µM: 92%
ACHN
  GI50: 8.04 µM
  TGI: > 100 µM
  CC50: > 100 µM

## Cn1cc(C2=C(c3cn(C)c4ncccc34)C(=O)NC2=O)c2ccccc21
SF-539 [1]
  growth at 1 µM: 86%
HCT-116
  growth at 0.01 µM: 106%
K562 [2]
  growth at 1 µM: 76%
MDA-MB-435
  GI50: 0.648 µM
  TGI: 19.3 µM
CAKI-1 [3]
  growth at 0.01 µM: 97%
NCI-H226
  growth at 0.1 µM: 91%
MOLT-4
  growth at 100 µM: -24%
SK-MEL-28
  GI50: 3.05 µM
  TGI: 17.7 µM
MCF7
  growth at 100 µM: -15%
M14 [4]
  growth at 100 µM: -67%
COLO 205
  growth at 1 µM: 83%
HCC 2998
  growth at 1 µM: 85%
CAKI-1 [5]
  GI50: 1.19 µM
  TGI: 10.2 µM
DU-145
  growth at 0.01 µM: 107%
M14 [6]
  growth at 0.1 µM: 108%
IGROV-1 [7]
  growth at 0.1 µM: 97%
Malme-3M
  growth at 100 µM: -11%
NCI-H522
  growth at 100 µM: -30%
SNB-75 [8]
  growth at 1 µM: 32%
SNB-75 [9]
  growth at 0.1 µM: 65%
HL-60(TB) [10]
  GI50: 4.05 µM
  TGI: 17.9 µM
RXF 393
  growth at 1 µM: 83%
OVCAR-5
  growth at 0.01 µM: 98%
HL-60(TB) [11]
  growth at 100 µM: -28%
K562 [12]
  GI50: 2.74 µM
  TGI: > 100 µM
A498
  growth at 1 µM: 27%
IGROV-1 [13]
  growth at 0.01 µM: 98%
SF-539 [14]
  growth at 0.1 µM: 107%
NCI-H23
  growth at 0.01 µM: 100%
UO-31 [15]
  growth at 0.1 µM: 89%
SF-268
  growth at 1 µM: 101%
NCI-H460
  GI50: 3.8 µM
  TGI: 22 µM
MDA-MB-231
  growth at 100 µM: -25%
UO-31 [16]
  growth at 1 µM: 75%
NCI/ADR-RES
  growth at 0.1 µM: 96%
ACHN
  GI50: 2.93 µM
  TGI: 26.2 µM
  CC50: > 100 µM
